Measured values reported in US11220503B2, “Phthalazine derivatives, preparation method, pharmaceutical composition and usage thereof” (Shanghai SIMR Biotech Co., Ltd., priority 2015, dated 2022).
Where two headings read alike, the source gives them in different places.

Target: T1, α5β3γ2 receptor (Homo sapiens, UniProt P18507+P31644)
T1 construct: expressed in transfected cells; host or cells: HEK-293 (stably transfected)
Test: Cell level screening: whole cell patch clamp, inverse agonist efficacy
Assay type: cell-based
Conditions: for inhibition at 0.001 µM: Con. 1 nM; for inhibition at 0.01 µM: Con. 10 nM; for inhibition at 0.05 µM: Con. 50 nM; for inhibition at 1 µM: Con. 1000 nM; for inverse agonism efficacy of the compound/α5IA inverse agonism efficacy: ratio to α5IA, compound 100 nM
Protocol: The inventors used electrophysiological methods to assay the inverse agonist efficacy of the substance to be tested. The detailed procedures are as follows: (1) Different subunits of GABAA receptors were expressed in human embryonic kidney cells 293 (HEK293). The cells were cultured in a culture medium and used as a cell model for screening potential analgesics. The α, β and γ subunits are necessary to form complete functional GABAA receptors. In this example, the inventor has established the following cell model: (a) α5 subunit (protein sequence is GenBank accession number: NP_001158509), β3 subunit (protein sequence is GenBank accession number: NP_068712) and γ2 subunit (protein sequence is GenBank accession number: NP_944494) were expressed in HEK-293 cell lines at the same time, which formed the complete functional GABAA receptors. (2) Cells were stably transfected HEK-293 cells expressing α5β3γ2 receptor, which were labeled by green fluorescent protein (GFP). Cells were grown in 10 cm dishes. The cells were passaged after reaching 80-90% confluence. During passaging, the culture medium was removed and discarded, 3 mL DMEM medium (Gibco™) was added to the dishes, the dishes were shaken slightly, and DMEM was removed and discarded. 3 mL Trypsin (Trypsin-EDTA 0.05%, Gibco™) was added and cells were digested at 37° C. for 3 minutes. Then 3 mL complete growth medium (DMEM+10% horse serum (Gibco™)) was added and the cells at the bottom of the culture dishes were dispersed. The cell suspension were transferred to a 15 mL centrifugal tube (Corning®) and then centrifuged at 200 g for 3 minutes. The supernatant was discarded, 4 mL complete growth medium was added, and the cells were resuspended by gently blowing. The cell suspension was diluted by 1:5 or 1:10 for subculturing. The cell suspension was diluted by 1:12 for electrophysiology experiment, which are added to the 24 well plate (Corning®) which has a glass slide pre-treated with poly-D-lysine. The cells were adhered to the slide before the experiment was conducted. The cells were maintained in culture for no more than 24 hours before use. (3) Compound concentration: for screening, all compounds were diluted to a final concentration of 100 nM. GABA was diluted at the concentration of 0.05-0.1 μM. The compounds were at the concentration of 1 nM, 10 nM, 50 nM, 100 nM and 1000 nM in dose-inverse agonism efficacy (%) experiment. The whole cell patch clamp technique was used in electrophysiology experiments. The extracellular solution (ECS) contained: 150 mM NaCl, 5 mM KCl, 2.5 mM CaCl2, 1 mM MgCl2, 10 mM HEPES and 10 mM glucose (pH 7.4); Patch electrodes were filled with an intracellular solution containing: 140 mM KCl, 5 mM EGTA, 10 mM HEPES (adjusted to pH 7.4 with KOH and to 320-330 mOsm with water). The currents were recorded by an EPC-10 amplifier and the PatchMaster software (HEKA). Patch electrodes with a resistance of 5-6 MΩ were pulled from borosilicate glass (Sutter). The diluted compounds were perfused by OCTAFLOWII system. GFP positive and independently growing cells were selected for recording. During recording, the membrane voltage was clamped at −60 mV. During experiment, the cells were firstly perfused with ECS for 20 seconds. When the baseline reached to a stable state, cells were then perfused with GABA solution. Then the current induced by GABA can be detected. After about 20-40 seconds, the current was stable. ECS was switched to compounds solution and the effects of the compounds were detected. At last, the perfusion solution was switched to ECS. The experiment was finished when the post-baseline returned to the pre-baseline before compounds perfusion. Only the data whose pre-baseline and post-baseline are at almost the same level were used for analysis. GABA was diluted at the concentration of 0.05-0.1 μM in ECS. Then, compounds were diluted at the desired concentration in GABA ECS. (4) Currents were analyzed with the PatchMaster (HEKA) software. […]

[1] = HEK293, compound 100 nM, GABA 0.05-0.1 μM, HEK293 α5β3γ2, clamped at −60 mV, (Ipost-Ipre)*100/Ipre, read-out: inverse agonism efficacy(%)
[2] = dose-efficacy, single replicates, read-out: Inverse agonism-Efficacy
[3] = dose-efficacy, Con. 100 nM, single replicates, read-out: Inverse agonism-Efficacy

T1 sequence (P31644 32-462): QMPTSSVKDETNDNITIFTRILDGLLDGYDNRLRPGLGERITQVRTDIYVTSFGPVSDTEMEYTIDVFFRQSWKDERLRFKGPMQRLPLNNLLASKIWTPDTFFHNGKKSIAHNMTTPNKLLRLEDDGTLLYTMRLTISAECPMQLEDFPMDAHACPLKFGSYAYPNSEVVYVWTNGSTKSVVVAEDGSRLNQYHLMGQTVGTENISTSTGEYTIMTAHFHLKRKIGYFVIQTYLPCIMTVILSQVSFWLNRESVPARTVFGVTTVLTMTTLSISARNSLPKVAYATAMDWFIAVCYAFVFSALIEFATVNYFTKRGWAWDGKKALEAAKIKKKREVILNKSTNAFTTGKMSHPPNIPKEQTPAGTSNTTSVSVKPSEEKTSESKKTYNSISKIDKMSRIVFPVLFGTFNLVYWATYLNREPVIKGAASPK
T1 sequence (P28472 26-473 isoform P28472-2 partner limits assumed): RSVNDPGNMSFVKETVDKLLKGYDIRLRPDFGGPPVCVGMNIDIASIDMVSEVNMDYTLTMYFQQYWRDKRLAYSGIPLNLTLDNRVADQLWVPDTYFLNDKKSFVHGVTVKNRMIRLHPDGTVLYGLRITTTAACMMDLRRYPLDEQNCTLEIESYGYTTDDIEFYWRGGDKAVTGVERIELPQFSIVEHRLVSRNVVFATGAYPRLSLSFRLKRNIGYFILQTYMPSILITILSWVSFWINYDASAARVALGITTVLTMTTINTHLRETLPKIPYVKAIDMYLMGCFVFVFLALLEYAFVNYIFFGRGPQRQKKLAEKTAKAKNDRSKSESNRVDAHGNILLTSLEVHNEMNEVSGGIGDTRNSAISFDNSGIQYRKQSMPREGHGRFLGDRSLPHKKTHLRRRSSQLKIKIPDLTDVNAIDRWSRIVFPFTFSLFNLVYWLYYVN
T1 sequence (P18507 40-475): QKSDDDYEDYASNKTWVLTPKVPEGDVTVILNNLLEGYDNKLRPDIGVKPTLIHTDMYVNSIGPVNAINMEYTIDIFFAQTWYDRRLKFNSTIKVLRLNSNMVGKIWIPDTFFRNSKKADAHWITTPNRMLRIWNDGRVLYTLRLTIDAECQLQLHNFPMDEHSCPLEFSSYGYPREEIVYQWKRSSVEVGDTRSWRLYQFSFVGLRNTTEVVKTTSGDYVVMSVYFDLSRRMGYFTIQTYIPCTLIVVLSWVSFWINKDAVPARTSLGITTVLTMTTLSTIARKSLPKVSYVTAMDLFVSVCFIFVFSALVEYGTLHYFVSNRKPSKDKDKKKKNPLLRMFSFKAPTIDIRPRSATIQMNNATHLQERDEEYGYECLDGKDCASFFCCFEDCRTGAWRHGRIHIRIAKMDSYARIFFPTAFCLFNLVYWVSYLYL

Structure (SMILES) | inhibition at 0.1 µM [1] [%] | inhibition at 0.001 µM [2] [%] | inhibition at 0.01 µM [2] [%] | inhibition at 0.05 µM [2] [%] | inhibition at 0.1 µM [3] [%] | inhibition at 1 µM [2] [%] | inverse agonism efficacy of the compound/α5IA inverse agonism efficacy
Cc1cc(-c2nnc3c4ccccc4c(OCc4ccc(C(=O)N(C)C)cn4)nn23)no1 [Compound 06, N,N-dimethyl-6-(((3-(5-methylisoxazol-3-yl)-[1,2,4]triazolo[3,4-a]phthalazin-6-yl)oxy)methyl)nicotinamide] | 36 | 10 | 17 | 23.1 | 26 | 32.3 | 1.596
Cc1nc(-c2nnc3c4ccccc4c(OCc4ccc(C(=O)N[C@H](C)CO)cc4C#N)nn23)no1 [Compound 31, (R)-3-cyano-N-(1-hydroxypropan-2-yl)-4-(((3-(5-methyl-1,2,4-oxadiazol-3-yl)-[1,2,4]triazolo[3,4-a]phthalazin-6-yl)oxy)methyl)benzamide] | 47.8 | – | – | – | – | – | 2.1179
Cc1cc(-c2nnc3c4ccccc4c(OCc4ccc(C(=O)N[C@H](C)CO)cc4Br)nn23)no1 [Compound 32, (R)-3-bromo-N-(1-hydroxypropan-2-yl)-4-(((3-(5-methylisoxazol-3-yl)-[1,2,4]triazolo[3,4-a]phthalazin-6-yl)oxy)methyl)benzamide] | 39.2 | – | – | – | – | – | 1.739
O=C(NN1CCOCC1)c1ccc(COc2nn3c(-c4cc(CO)on4)nnc3c3ccccc23)nc1 [Compound 33, 6-(((3-(5-(hydroxymethyl)isoxazol-3-yl)-[1,2,4]triazolo[3,4-a]phthalazin-6-yl)oxy)methyl)-N-morpholinonicotinamide] | 33 | – | – | – | – | – | 1.463
Cn1cc(NC(=O)c2ccc(COc3nn4c(-c5cc(CO)on5)nnc4c4ccccc34)nc2)cn1 [Compound 37, 6-(((3-(5-(hydroxymethyl)isoxazol-3-yl)-[1,2,4]triazolo[3,4-a]phthalazin-6-yl)oxy)methyl)-N-(1-methyl-1H-pyrazol-4-yl)nicotinamide] | 32 | – | – | – | – | – | 1.419
O=C(c1ccc(COc2nn3c(-c4cc(CO)on4)nnc3c3ccccc23)nc1)N1CCOCC1 [Compound 41, (6-(((3-(5-(hydroxymethyl)isoxazol-3-yl)-[1,2,4]triazolo[3,4-a]phthalazin-6-yl)oxy)methyl)pyridin-3-yl)(morpholino)methanone] | 42.1 | – | – | – | – | – | 1.867
CN(C)C(=O)c1ccc(COc2nn3c(-c4cc(CO)on4)nnc3c3ccccc23)nc1 [Compound 45, 6-(((3-(5-(hydroxymethyl)isoxazol-3-yl)-[1,2,4]triazolo[3,4-a]phthalazin-6-yl)oxy)methyl)-N,N-dimethylnicotinamide] | 30.2 | – | – | – | – | – | 1.339
NNC(=O)c1ccc(COc2nn3c(-c4cc(CO)on4)nnc3c3ccccc23)nc1 [Compound 51, 6-(((3-(5-(hydroxymethyl)isoxazol-3-yl)-[1,2,4]triazolo[3,4-a]phthalazin-6-yl)oxy)methyl)nicotinohydrazide] | 30.5 | – | – | – | – | – | 1.351
O=C(NN1CCS(=O)(=O)CC1)c1ccc(COc2nn3c(-c4cc(CO)on4)nnc3c3ccccc23)nc1 [Compound 54, N-(1,1-dioxidothiomorpholino)-6-(((3-(5-(hydroxymethyl)isoxazol-3-yl)-[1,2,4]triazolo[3,4-a]phthalazin-6-yl)oxy)methyl)nicotinamide] | 34 | – | – | – | – | – | 1.508
C[C@H](CO)NC(=O)c1ccc(COc2nn3c(-c4ccoc4)nnc3c3ccccc23)nc1 [Compound 59, (R)-6-(((3-(furan-3-yl)-[1,2,4]triazolo[3,4-a]phthalazin-6-yl)oxy)methyl)-N-(1-hydroxypropan-2-yl)nicotinamide] | 39 | – | – | – | – | – | 1.73
C[C@H](CO)NC(=O)c1ccc(COc2nn3c(-c4ccsc4)nnc3c3ccccc23)nc1 [Compound 60, (R)—N-(1-hydroxypropan-2-yl)-6-(((3-(thiophen-3-yl)-[1,2,4]triazolo[3,4-a]phthalazin-6-yl)oxy)methyl)nicotinamide] | 32.6 | – | – | – | – | – | 1.447
Cc1nc(COc2nn3c(-c4cc(CO)on4)nnc3c3ccccc23)ccc1C(=O)N[C@H](C)CO [Compound 61, (R)-6-(((3-(5-(hydroxymethyl)isoxazol-3-yl)-[1,2,4]triazolo[3,4-a]phthalazin-6-yl)oxy)methyl)-N-(1-hydroxypropan-2-yl)-2-methylnicotinamide] | 46.2 | – | – | – | – | – | 2.047
Cc1cc(-c2nnc3c4ccccc4c(OCc4cn(C)nn4)nn23)no1 [α5IA, reference compound] | 22.6 | 4.2 | 9.4 | 22.1 | 19 | 20.7 | –
